Where a name gives a salt, the structure may show the parent alone.
Assay: logP determination by HPLC (EEC directive 79/831 Annex V. A8)
Format: physicochemical
Conditions: gradient method
Description: logP values are determined in accordance with EEC directive 79/831 Annex V. A8 by HPLC (gradient method, acetonitrile/0.1% aqueous phosphoric acid). Preparation of Starting Materials

[1] = HPLC (gradient, acetonitrile/0.1% aqueous phosphoric acid)

SMILES	chromatographic logP [1]	other results
CC(Nc1c(-c2ccc(F)cc2Cl)c(Cl)nc2c(C(=N)N)cnn12)C(C)(C)C (single isomer, unassigned) [Example 3, 3-iminoamide-5-chloro-6-(2-chloro-4-fluorophenyl)-7-(3,3-dimethylbut-2-ylamino)pyrazolo[1,5-a]pyrimidine hydrochloride]	2.72	
CC(Nc1c(-c2ccc(F)cc2Cl)c(Cl)nc2c(C(=N)N)cnn12)C(C)(C)C (single isomer, unassigned) [Example 4, hydrochloride]		logP (acetonitrile/0.1% aqueous phosphoric acid, hydrochloride): 2.58
CC(Nc1c(-c2c(F)cccc2Cl)c(Cl)nc2c(C(N)=O)cnn12)C(C)(C)C (stereo not shown) [Example 1, 3-amido-5-chloro-6-(2-chloro-6-fluorophenyl)-7-(3,3-dimethylbut-2-ylamino)pyrazolo[1,5-a]pyrimidine]	3.62	
CC(Nc1c(-c2ccc(F)cc2Cl)c(Cl)nc2c(C(N)=NO)cnn12)C(C)(C)C (stereo not shown) [Example 2, 3-hydroximinoamido-5-chloro-6-(2-chloro-4-fluorophenyl)-7-(3,3-dimethylbut-2-ylamino)pyrazolo[1,5-a]pyrimidine]	2.55	
CC(Nc1c(-c2ccc(F)cc2Cl)c(Cl)nc2c(C=NNc3ccc([N+](=O)[O-])cc3[N+](=O)[O-])cnn12)C(C)(C)C (stereo not shown) [Example 5, 3-(2,4-dinitriophenylhydraziminomethyl)-5-chloro-6-(2-chloro-4-fluorophenyl)-7-(3,3-dimethylbut-2-ylamino)pyrazolo[1,5-a]pyrimidine]		chromatographic logP (acetonitrile/0.1% aqueous phosphoric acid): 6.28

Now from value to molecule, other results behind:

chromatographic logP [1]	SMILES	other results
4.59	CC(Nc1c(-c2c(F)cccc2Cl)c(Cl)nc2c(C#N)cnn12)C(C)(C)C (stereo not shown) [Example 36, 3-cyano-5-chloro-6-(2-chloro-6-fluorophenyl)-7-(3,3-dimethylbut-2-ylamino)pyrazolo[1,5-a]pyrimidine]	
4.78	CC(Nc1c(-c2ccc(F)cc2Cl)c(Cl)nc2c(C#N)cnn12)C(C)(C)C (stereo not shown) [Example 37]	
0.19	N#Cc1cnn2c(O)c(-c3c(F)cccc3Cl)c(O)nc12 [Example 39]	
3.49	N#Cc1cnn2c(Cl)c(-c3ccc(F)cc3Cl)c(Cl)nc12 [Example 40, 3-cyano-5,7-dichloro-6-(2-chloro-4-fluorophenyl)pyrazolo[1,5-a]pyrimidine]	
3.31	N#Cc1cnn2c(Cl)c(-c3c(F)cccc3Cl)c(Cl)nc12 [Example 41]	

— patent US20060276478A1, “Pyrazolopyrimidines” (priority 2003, published 2006)
